From publication PMC5505960, “A novel STK1-targeted small-molecule as an “antibiotic resistance breaker” against multidrug-resistant Staphylococcus aureus” (Scientific Reports, 2017) come the findings set out here.

In general, IC50 refers to the concentration at which inhibition is half-maximal.

In series [1] the target is T1, STK1 (STKK1, soluble kinase domain) (Staphylococcus aureus, UniProt A0ABF7PGK0).
T1 construct: gene SA1063; His-tag-STKK1, kinase domain with part of the adjacent juxta-membrane domain (1-280 aa)
Kind of series: inhibition of autophosphorylation of purified STKK1 (gamma-32P-ATP); also elution of STK1 from ATP column. The series is classed as biochemical.

Series [2] has as its target T1, STK1 (STKK1, soluble kinase domain). Kind of series: inhibition of autophosphorylation of purified STKK1 (gamma-32P-ATP); also elution of purified STKK1 from ATP column. The series is classed as biochemical.
Series [3] concerns WalR-P (STKK1-phosphorylated WalR) (Staphylococcus aureus (ORF numbering of N315; source strain of the clone not stated)). Kind of series: EMSA. The note with it: scale: fold bound/free ratio vs unphosphorylated WalR.

T1 sequence (A0ABF7PGK0 entry or part of it): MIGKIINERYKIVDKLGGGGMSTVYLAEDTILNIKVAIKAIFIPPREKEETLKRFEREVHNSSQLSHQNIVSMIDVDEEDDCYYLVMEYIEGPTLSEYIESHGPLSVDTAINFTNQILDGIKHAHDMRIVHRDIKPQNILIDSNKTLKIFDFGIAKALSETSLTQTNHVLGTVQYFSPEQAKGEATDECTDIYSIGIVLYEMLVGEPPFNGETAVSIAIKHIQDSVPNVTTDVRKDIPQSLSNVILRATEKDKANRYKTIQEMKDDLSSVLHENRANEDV

The compound `Cc1ccc(NC(=O)c2sc(=S)n3c2[nH]c(=O)c2ccccc23)c(C)c1` [Inh2, N-(2,4-Dimethylphenyl)-5-oxo-1-thioxo-4,5-dihydro[1,3]thiazolo[3,4-a] quinazoline-3-carboxamide] showed an IC50 in series [1] of 24.5 µM.
For the compound `COC(=O)c1ccc2c(=O)[nH]c3c(C(=O)Nc4ccccc4)sc(=S)n3c2c1` [Inh2-B1, Methyl 5-oxo-3-(phenylcarbamoyl)-1-thioxo-4,5dihydro[1,3]thiazolo[3,4-a]quinazoline-8-carboxylate], in series [2], the IC50 is 49 µM.
Consider PSA0710 promoter probe (lytE), for which the binding signal in series [3] was greater than 2.
Regarding PSA2097 promoter probe (ssaA), the binding signal in series [3] was greater than 2.
